# Patent publication US20170071944A1, “MODULATORS OF TOLL-LIKE RECEPTORS FOR THE TREATMENT OF HIV” (Gilead Sciences, Inc., priority 2015, published 2017)
# Tested on: PBMC cultures from HIV-1 infected subjects on cART
# Assay: Induced cytokines and chemokines in PBMC cultures from HIV-1 infected subjects on cART (multiplexed Luminex)
# Type: cell-based, human
# Details: day 2, geometric mean, 4 subjects
# Method: To further characterize the immune modulatory effect of TLR8 agonists in cells from HIV-infected subjects, the production of secreted cytokines and chemokines was measured in PBMCs from 4 HIV-infected subjects on suppressive cART (anonymized participant IDs 180-183). PBMCs were purified, as described in Example 121, and immediately added to tissue culture plates pre-equilibrated at 37° C. with media containing DMSO (vehicle control) or with the TLR8 modulating compound Example 15 at concentrations ranging from 1.0 nM to 10.0 μM. On day 2 after treatment, cell-free culture supernatants were collected and frozen at −80 C for subsequent analysis. Frozen supernatants were thawed at room temperature, and the indicated cytokines and chemokines were quantified with a custom multiplexed xMAP Luminex® assay following the manufacturer's instructions (Thermo Fisher Scientific Inc., Grand Island, N.Y., custom-designed kit).
# Data are expressed as geometric mean cytokine values (pg/ml) obtained from 4 subjects' PBMCs. Geometric mean fold-activation from three independent incubation samples for each condition. Fold (fold-activation) is calculated as a ratio of the concentration of cytokine detected in cell culture supernatants from agonist treated samples relative to DMSO treated samples
smiles,measurement,setting,value
CCCC[C@H](CO)Nc1nc(N)nc2cccnc12 [Example 15],GRO-α,Ex 15 1 nM,31 pg/mL
same,GRO-α Fold vs DMSO,Ex 15 1 nM,1 fold
same,Granzyme B,Ex 15 1 nM,80 pg/mL
same,Granzyme B Fold vs DMSO,Ex 15 1 nM,<1 fold
same,I-TAC,Ex 15 1 nM,82 pg/mL
same,I-TAC Fold vs DMSO,Ex 15 1 nM,2 fold
same,IFN-α,Ex 15 1 nM,4 pg/mL
same,IFN-α Fold vs DMSO,Ex 15 1 nM,2 fold
same,IFN-γ,Ex 15 1 nM,50 pg/mL
same,IFN-γ Fold vs DMSO,Ex 15 1 nM,2 fold
same,IL-6 pg/ml,Ex 15 1 nM,61 pg/mL
same,IL-8 pg/ml,Ex 15 1 nM,624 pg/mL
same,IL-10 pg/ml,Ex 15 1 nM,25 pg/mL
same,IL-18 pg/ml,Ex 15 1 nM,23 pg/mL
same,IL-23 pg/ml,Ex 15 1 nM,131 pg/mL
same,IL-1RA,Ex 15 1 nM,11610 pg/mL
same,IL-1RA Fold vs DMSO,Ex 15 1 nM,3 fold
same,IL-1β,Ex 15 1 nM,5 pg/mL
same,IL-1β Fold vs DMSO,Ex 15 1 nM,2 fold
same,IL-6 Fold vs DMSO,Ex 15 1 nM,1 fold
same,IL-8 Fold vs DMSO,Ex 15 1 nM,2 fold
same,IL-10 Fold vs DMSO,Ex 15 1 nM,1 fold
same,IL-18 Fold vs DMSO,Ex 15 1 nM,1 fold
same,IL-23 Fold vs DMSO,Ex 15 1 nM,2 fold
same,IP-10 pg/ml,Ex 15 1 nM,696 pg/mL
same,IP-10 Fold vs DMSO,Ex 15 1 nM,3 fold
same,MCP-1 pg/ml,Ex 15 1 nM,180 pg/mL
same,MCP-1 Fold vs DMSO,Ex 15 1 nM,3 fold
same,MIP-1α,Ex 15 1 nM,251 pg/mL
same,MIP-1α Fold vs DMSO,Ex 15 1 nM,5 fold
same,MIP-1β,Ex 15 1 nM,2189 pg/mL
same,MIP-1β Fold vs DMSO,Ex 15 1 nM,2 fold
same,MIP-3α,Ex 15 1 nM,23 pg/mL
same,MIP-3α Fold vs DMSO,Ex 15 1 nM,1 fold
same,MMP-1 pg/ml,Ex 15 1 nM,119 pg/mL
same,MMP-1 Fold vs DMSO,Ex 15 1 nM,1 fold
same,GRO-α,Ex 15 10 nM,29 pg/mL
same,GRO-α Fold vs DMSO,Ex 15 10 nM,1 fold
same,Granzyme B,Ex 15 10 nM,74 pg/mL
same,Granzyme B Fold vs DMSO,Ex 15 10 nM,<1 fold
same,I-TAC,Ex 15 10 nM,70 pg/mL
same,I-TAC Fold vs DMSO,Ex 15 10 nM,1 fold
same,IFN-α,Ex 15 10 nM,4 pg/mL
same,IFN-α Fold vs DMSO,Ex 15 10 nM,2 fold
same,IFN-γ,Ex 15 10 nM,48 pg/mL
same,IFN-γ Fold vs DMSO,Ex 15 10 nM,2 fold
same,IL-6 pg/ml,Ex 15 10 nM,61 pg/mL
same,IL-8 pg/ml,Ex 15 10 nM,333 pg/mL
same,IL-10 pg/ml,Ex 15 10 nM,21 pg/mL
same,IL-18 pg/ml,Ex 15 10 nM,26 pg/mL
same,IL-23 pg/ml,Ex 15 10 nM,86 pg/mL
same,IL-1RA,Ex 15 10 nM,5309 pg/mL
same,IL-1RA Fold vs DMSO,Ex 15 10 nM,1 fold
same,IL-1β,Ex 15 10 nM,2 pg/mL
same,IL-1β Fold vs DMSO,Ex 15 10 nM,1 fold
same,IL-6 Fold vs DMSO,Ex 15 10 nM,1 fold
same,IL-8 Fold vs DMSO,Ex 15 10 nM,1 fold
same,IL-10 Fold vs DMSO,Ex 15 10 nM,1 fold
same,IL-18 Fold vs DMSO,Ex 15 10 nM,2 fold
same,IL-23 Fold vs DMSO,Ex 15 10 nM,1 fold
same,IP-10 pg/ml,Ex 15 10 nM,259 pg/mL
same,IP-10 Fold vs DMSO,Ex 15 10 nM,1 fold
same,MCP-1 pg/ml,Ex 15 10 nM,91 pg/mL
same,MCP-1 Fold vs DMSO,Ex 15 10 nM,1 fold
same,MIP-1α,Ex 15 10 nM,70 pg/mL
same,MIP-1α Fold vs DMSO,Ex 15 10 nM,1 fold
same,MIP-1β,Ex 15 10 nM,1302 pg/mL
same,MIP-1β Fold vs DMSO,Ex 15 10 nM,1 fold
same,MIP-3α,Ex 15 10 nM,23 pg/mL
same,MIP-3α Fold vs DMSO,Ex 15 10 nM,1 fold
same,MMP-1 pg/ml,Ex 15 10 nM,104 pg/mL
same,MMP-1 Fold vs DMSO,Ex 15 10 nM,1 fold
same,TNF-α,Ex 15 10 nM,35 pg/mL
same,TNF-α Fold vs DMSO,Ex 15 10 nM,2 fold
same,GRO-α,Ex 15 100 nM,469 pg/mL
same,GRO-α Fold vs DMSO,Ex 15 100 nM,20 fold
same,Granzyme B,Ex 15 100 nM,79 pg/mL
same,Granzyme B Fold vs DMSO,Ex 15 100 nM,<1 fold
same,I-TAC,Ex 15 100 nM,32 pg/mL
same,I-TAC Fold vs DMSO,Ex 15 100 nM,1 fold
same,IFN-α,Ex 15 100 nM,3 pg/mL
same,IFN-α Fold vs DMSO,Ex 15 100 nM,1 fold
same,IFN-γ,Ex 15 100 nM,49 pg/mL
same,IFN-γ Fold vs DMSO,Ex 15 100 nM,2 fold
same,IL-6 pg/ml,Ex 15 100 nM,4424 pg/mL
same,IL-8 pg/ml,Ex 15 100 nM,2561 pg/mL
same,IL-10 pg/ml,Ex 15 100 nM,2459 pg/mL
same,IL-18 pg/ml,Ex 15 100 nM,20 pg/mL
same,IL-23 pg/ml,Ex 15 100 nM,130 pg/mL
same,IL-1RA,Ex 15 100 nM,41213 pg/mL
same,IL-1RA Fold vs DMSO,Ex 15 100 nM,12 fold
same,IL-1β,Ex 15 100 nM,135 pg/mL
same,IL-1β Fold vs DMSO,Ex 15 100 nM,45 fold
same,IL-6 Fold vs DMSO,Ex 15 100 nM,57 fold
same,IL-8 Fold vs DMSO,Ex 15 100 nM,8 fold
same,IL-10 Fold vs DMSO,Ex 15 100 nM,145 fold
same,IL-12p70 pg/ml,Ex 15 100 nM,6 pg/mL
same,IL-12p70 Fold vs DMSO,Ex 15 100 nM,2 fold
same,IL-18 Fold vs DMSO,Ex 15 100 nM,1 fold
same,IL-23 Fold vs DMSO,Ex 15 100 nM,2 fold
same,IP-10 pg/ml,Ex 15 100 nM,226 pg/mL
same,IP-10 Fold vs DMSO,Ex 15 100 nM,1 fold
same,MCP-1 pg/ml,Ex 15 100 nM,2162 pg/mL
same,MCP-1 Fold vs DMSO,Ex 15 100 nM,33 fold
same,MIP-1α,Ex 15 100 nM,172 pg/mL
same,MIP-1α Fold vs DMSO,Ex 15 100 nM,3 fold
same,MIP-1β,Ex 15 100 nM,1302 pg/mL
same,MIP-1β Fold vs DMSO,Ex 15 100 nM,1 fold
same,MIP-3α,Ex 15 100 nM,28 pg/mL
same,MIP-3α Fold vs DMSO,Ex 15 100 nM,1 fold
same,MMP-1 pg/ml,Ex 15 100 nM,198 pg/mL
same,MMP-1 Fold vs DMSO,Ex 15 100 nM,2 fold
same,TNF-α,Ex 15 100 nM,132 pg/mL
same,TNF-α Fold vs DMSO,Ex 15 100 nM,6 fold
same,GRO-α,Ex 15 1000 nM,413 pg/mL
same,GRO-α Fold vs DMSO,Ex 15 1000 nM,18 fold
same,Granzyme B,Ex 15 1000 nM,878 pg/mL
same,Granzyme B Fold vs DMSO,Ex 15 1000 nM,4 fold
same,I-TAC,Ex 15 1000 nM,105 pg/mL
